Results on ten compounds are retold here after PubChem BioAssay (NCI).

Test systems include 786-0 renal; A498 renal; EKVX NSCLC; HCT-116 colon; HS 578T breast; MALME-3M melanoma; MDA-MB-435; MOLT-4 leukemia; NCI-H460 lung; NCI/ADR-RES ovarian; OVCAR-5 ovarian; OVCAR-8 ovarian; RPMI-8226 leukemia; SF-268 CNS; SF-295 CNS; SF-539 CNS; SNB-75 CNS; TK-10 renal; UACC-257 melanoma; UACC-62 melanoma.
Assay in all cases: NCI-60 cell line screen, 48 h

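Protocol summary: plate cells (96-well), add compound at 5 concentrations, incubate 48 h, interpolate endpoints linearly. TGI marks complete inhibition of growth.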 Where a SMILES comes first, the peptide text is derived from it. [ ]: non-standard residue; d: D form. The star is where a group is joined. X28 = COC1=CC(=O)N(C(=O)[C@@H](O*)C(C)C)[C@H]1Cc1ccccc1; NMeV = CN[C@H](C(=O)O)C(C)C; Hexanoyl = CCCCCC(=O)*

On to `CCCNC(=O)c1cc(NC(=O)c2cc(NC(=O)/C=C/c3ccccc3)c(OC)c(OC)c2)c(OC)c(OC)c1`, for which the TGI in the experiment on 786-0 renal was 18.6 µM; in the experiment with A498 renal, 30.8 µM; with EKVX NSCLC it was 54.1 µM; with HCT-116 colon it was above 100 µM; in the experiment with HS 578T breast, 6.18 µM; in the experiment on MALME-3M melanoma, 8.74 µM. Further, the TGI is 66.5 µM with MDA-MB-435; above 100 µM in the experiment with MOLT-4 leukemia; 82.5 µM in the experiment on NCI-H460 lung; 56 µM in the experiment with NCI/ADR-RES ovarian; 57.1 µM in the experiment on OVCAR-5 ovarian; 17 µM in the experiment with OVCAR-8 ovarian. Besides, the TGI is above 100 µM with RPMI-8226 leukemia; 8.68 µM with SF-268 CNS; 11.2 µM in the experiment with SF-295 CNS; 20.4 µM in the experiment on SF-539 CNS; 7.76 µM with SNB-75 CNS; 40.1 µM with TK-10 renal. Also, the TGI in the experiment with UACC-257 melanoma came out at 52.2 µM; with UACC-62 melanoma it was 0.597 µM.

Consider `CCCCCC(=O)N[C@H](C(=O)N[C@H](C(=O)N(C)[C@H](C(=O)N1CCC[C@H]1C(=O)N1CCC[C@H]1C(=O)O[C@H](C(=O)N1C(=O)C=C(OC)[C@@H]1Cc1ccccc1)C(C)C)C(C)C)C(C)C)C(C)C` (Hexanoyl-VV[NMeV]PP-X28), for which the TGI in the experiment on 786-0 renal, in the experiment with A498 renal, in the experiment on EKVX NSCLC, with HCT-116 colon, in the experiment on HS 578T breast and with MALME-3M melanoma was above 100 µM each time. Further, the TGI with MDA-MB-435, in the experiment on MOLT-4 leukemia, with NCI-H460 lung, with NCI/ADR-RES ovarian, in the experiment with OVCAR-5 ovarian and with OVCAR-8 ovarian was above 100 µM in each case. The TGI with RPMI-8226 leukemia was above 100 µM; in the experiment with SF-268 CNS it was above 100 µM; with SF-295 CNS, above 100 µM; in the experiment with SF-539 CNS, above 100 µM; with SNB-75 CNS, 38.5 µM; in the experiment on TK-10 renal it was above 100 µM. In addition, the TGI in the experiment with UACC-257 melanoma and in the experiment with UACC-62 melanoma was above 100 µM throughout.

With `COc1ccc(/C=C2\C(=O)N(C3OC(COC(C)=O)C(OC(C)=O)C(OC(C)=O)C3OC(C)=O)c3ccccc3N=C2N)cc1` (stereo not given), the TGI in the experiment with 786-0 renal is 37.5 µM; in the experiment on A498 renal, above 100 µM; with EKVX NSCLC, above 100 µM; in the experiment on HCT-116 colon it was 49.7 µM; with HS 578T breast, above 100 µM; with MALME-3M melanoma, 84.5 µM. The TGI is 35.7 µM with MDA-MB-435; 39.7 µM in the experiment with MOLT-4 leukemia; 75.8 µM in the experiment with NCI-H460 lung; 83.9 µM in the experiment on NCI/ADR-RES ovarian; above 100 µM with OVCAR-5 ovarian; 45.6 µM in the experiment with OVCAR-8 ovarian. In addition, the TGI was 37.5 µM in the experiment with RPMI-8226 leukemia; above 100 µM in the experiment on SF-268 CNS; 72.1 µM in the experiment with SF-295 CNS; 21.4 µM with SF-539 CNS; 54 µM with SNB-75 CNS; 99.2 µM in the experiment with TK-10 renal. For the same compound, the TGI is 72.5 µM with UACC-257 melanoma and 45.8 µM in the experiment with UACC-62 melanoma.

In the case of `C=CC/C=C/Cc1csc(C(C)(C)C(O)C/C=C/C(=C)CCNC(=O)OC)n1` (stereo not given), the TGI in the experiment with 786-0 renal, in the experiment on A498 renal, with EKVX NSCLC, with HCT-116 colon, in the experiment with HS 578T breast and in the experiment on MALME-3M melanoma was above 100 µM each time. In addition, the TGI with MDA-MB-435, in the experiment on MOLT-4 leukemia, in the experiment with NCI-H460 lung, with NCI/ADR-RES ovarian, in the experiment on OVCAR-5 ovarian and in the experiment on OVCAR-8 ovarian was above 100 µM throughout. Also, the TGI was above 100 µM in the experiment with RPMI-8226 leukemia; above 100 µM with SF-268 CNS; above 100 µM in the experiment on SF-295 CNS; above 100 µM in the experiment on SF-539 CNS; above 83.8 µM in the experiment with SNB-75 CNS; above 100 µM in the experiment with TK-10 renal. The TGI with UACC-257 melanoma and in the experiment with UACC-62 melanoma was above 100 µM each time.

`COc1ccc(OCc2nc3cc(C(F)(F)F)ccc3nc2-c2ccccc2)cc1`: the TGI in the experiment with 786-0 renal, in the experiment with A498 renal, in the experiment with EKVX NSCLC, in the experiment with HCT-116 colon, with HS 578T breast and in the experiment on MALME-3M melanoma was above 100 µM each time. In addition, the TGI in the experiment with MDA-MB-435, in the experiment with MOLT-4 leukemia, in the experiment on NCI-H460 lung, in the experiment with NCI/ADR-RES ovarian, with OVCAR-5 ovarian and in the experiment with OVCAR-8 ovarian was above 100 µM throughout. Further, the TGI with RPMI-8226 leukemia, with SF-268 CNS, with SF-295 CNS, with SF-539 CNS, in the experiment with SNB-75 CNS and in the experiment on TK-10 renal was above 100 µM in each case. Moreover, the TGI in the experiment with UACC-257 melanoma and with UACC-62 melanoma was above 100 µM each time.

Take `c1ccc([P+](Cc2ccc(C[P+](c3ccccc3)(c3ccccc3)c3ccccc3)cc2)(c2ccccc2)c2ccccc2)cc1`: the TGI in the experiment on 786-0 renal, in the experiment on A498 renal, in the experiment on EKVX NSCLC, in the experiment on HCT-116 colon, in the experiment on HS 578T breast and with MALME-3M melanoma was above 100 µM in each case. Also, the TGI in the experiment with MDA-MB-435, in the experiment on MOLT-4 leukemia, in the experiment with NCI-H460 lung, in the experiment with NCI/ADR-RES ovarian, with OVCAR-5 ovarian and in the experiment with OVCAR-8 ovarian was above 100 µM in each case. The TGI in the experiment on RPMI-8226 leukemia, with SF-268 CNS, with SF-295 CNS, in the experiment with SF-539 CNS, in the experiment with SNB-75 CNS and in the experiment on TK-10 renal was above 100 µM throughout. The TGI in the experiment with UACC-257 melanoma and in the experiment on UACC-62 melanoma was above 100 µM throughout.

Turning to `NC(=O)N=C(N(Cc1ccccc1)Cc1ccccc1)N(Cc1ccccc1)Cc1ccccc1`, the TGI with 786-0 renal, in the experiment with A498 renal, in the experiment on EKVX NSCLC, with HCT-116 colon, with HS 578T breast and in the experiment with MALME-3M melanoma was above 100 µM in each case. For the same compound, the TGI in the experiment on MDA-MB-435, in the experiment on MOLT-4 leukemia, in the experiment with NCI-H460 lung, in the experiment with NCI/ADR-RES ovarian, with OVCAR-5 ovarian and with OVCAR-8 ovarian was above 100 µM in each case. The TGI in the experiment with RPMI-8226 leukemia is above 100 µM; with SF-268 CNS, above 100 µM; with SF-295 CNS it was 35.1 µM; in the experiment with SF-539 CNS it was above 100 µM; with SNB-75 CNS, 81.8 µM; in the experiment on TK-10 renal it was above 100 µM. Moreover, the TGI in the experiment on UACC-257 melanoma and in the experiment on UACC-62 melanoma was above 100 µM throughout.

Take `O=c1c2nn3c(=O)n(-c4ccccc4)c(=O)c3nn2c(=O)n1-c1ccccc1`: the TGI in the experiment with 786-0 renal, in the experiment with A498 renal, in the experiment on EKVX NSCLC, in the experiment on HCT-116 colon, in the experiment with HS 578T breast and with MALME-3M melanoma was above 100 µM in each case. For the same compound, the TGI in the experiment on MDA-MB-435, in the experiment with MOLT-4 leukemia, in the experiment on NCI-H460 lung, with NCI/ADR-RES ovarian, with OVCAR-5 ovarian and with OVCAR-8 ovarian was above 100 µM throughout. Besides, the TGI in the experiment with RPMI-8226 leukemia, with SF-268 CNS, with SF-295 CNS, in the experiment with SF-539 CNS, in the experiment with SNB-75 CNS and with TK-10 renal was above 100 µM throughout. Further, the TGI in the experiment with UACC-257 melanoma and in the experiment on UACC-62 melanoma was above 100 µM each time.

For the compound `COC(=O)C1=CC2CCCC1(O)C(C(C)=O)C2` (stereo not given), the TGI is 41.3 µM with 786-0 renal; above 100 µM in the experiment on A498 renal; above 86.6 µM in the experiment with EKVX NSCLC; above 100 µM with HCT-116 colon; above 100 µM in the experiment with HS 578T breast; above 100 µM in the experiment on MALME-3M melanoma. Moreover, the TGI is above 100 µM in the experiment on MDA-MB-435; 43.8 µM in the experiment with MOLT-4 leukemia; above 100 µM in the experiment on NCI-H460 lung; above 100 µM with NCI/ADR-RES ovarian; above 100 µM in the experiment with OVCAR-5 ovarian; above 79.5 µM with OVCAR-8 ovarian. Moreover, the TGI is 69.6 µM in the experiment with RPMI-8226 leukemia; above 67.3 µM with SF-268 CNS; above 100 µM in the experiment on SF-295 CNS; 26.6 µM in the experiment with SF-539 CNS; above 31.6 µM in the experiment on SNB-75 CNS; above 100 µM in the experiment with TK-10 renal. In addition, the TGI in the experiment on UACC-257 melanoma and with UACC-62 melanoma was above 100 µM in each case.

Turning to `O=C(Cc1ccccc1)NNc1nc(NNC(=O)c2ccncc2)nc(Nc2ccc([N+](=O)[O-])cc2)n1`, the TGI with 786-0 renal, with A498 renal, in the experiment with EKVX NSCLC, in the experiment with HCT-116 colon, in the experiment with HS 578T breast and in the experiment with MALME-3M melanoma was above 10 µM each time. Moreover, the TGI in the experiment on MDA-MB-435, in the experiment with MOLT-4 leukemia, in the experiment with NCI-H460 lung, in the experiment with NCI/ADR-RES ovarian, in the experiment with OVCAR-5 ovarian and in the experiment with OVCAR-8 ovarian was above 10 µM in each case. The TGI in the experiment with RPMI-8226 leukemia, in the experiment on SF-268 CNS, in the experiment on SF-295 CNS, in the experiment with SF-539 CNS, in the experiment on SNB-75 CNS and in the experiment on TK-10 renal was above 10 µM in each case. The TGI with UACC-257 melanoma and in the experiment on UACC-62 melanoma was above 10 µM throughout.
